This is an account of results in ChEMBL document CHEMBL1157601, “1-Alkyl-4-phenyl-6-alkoxy-1H-quinazolin-2-ones: a novel series of potent calcium-sensing receptor antagonists” (J Med Chem, 2010).

The target of data set [1] is T1, Extracellular calcium-sensing receptor (Homo sapiens, UniProt P41180).
T1 sequence (P41180 whole entry): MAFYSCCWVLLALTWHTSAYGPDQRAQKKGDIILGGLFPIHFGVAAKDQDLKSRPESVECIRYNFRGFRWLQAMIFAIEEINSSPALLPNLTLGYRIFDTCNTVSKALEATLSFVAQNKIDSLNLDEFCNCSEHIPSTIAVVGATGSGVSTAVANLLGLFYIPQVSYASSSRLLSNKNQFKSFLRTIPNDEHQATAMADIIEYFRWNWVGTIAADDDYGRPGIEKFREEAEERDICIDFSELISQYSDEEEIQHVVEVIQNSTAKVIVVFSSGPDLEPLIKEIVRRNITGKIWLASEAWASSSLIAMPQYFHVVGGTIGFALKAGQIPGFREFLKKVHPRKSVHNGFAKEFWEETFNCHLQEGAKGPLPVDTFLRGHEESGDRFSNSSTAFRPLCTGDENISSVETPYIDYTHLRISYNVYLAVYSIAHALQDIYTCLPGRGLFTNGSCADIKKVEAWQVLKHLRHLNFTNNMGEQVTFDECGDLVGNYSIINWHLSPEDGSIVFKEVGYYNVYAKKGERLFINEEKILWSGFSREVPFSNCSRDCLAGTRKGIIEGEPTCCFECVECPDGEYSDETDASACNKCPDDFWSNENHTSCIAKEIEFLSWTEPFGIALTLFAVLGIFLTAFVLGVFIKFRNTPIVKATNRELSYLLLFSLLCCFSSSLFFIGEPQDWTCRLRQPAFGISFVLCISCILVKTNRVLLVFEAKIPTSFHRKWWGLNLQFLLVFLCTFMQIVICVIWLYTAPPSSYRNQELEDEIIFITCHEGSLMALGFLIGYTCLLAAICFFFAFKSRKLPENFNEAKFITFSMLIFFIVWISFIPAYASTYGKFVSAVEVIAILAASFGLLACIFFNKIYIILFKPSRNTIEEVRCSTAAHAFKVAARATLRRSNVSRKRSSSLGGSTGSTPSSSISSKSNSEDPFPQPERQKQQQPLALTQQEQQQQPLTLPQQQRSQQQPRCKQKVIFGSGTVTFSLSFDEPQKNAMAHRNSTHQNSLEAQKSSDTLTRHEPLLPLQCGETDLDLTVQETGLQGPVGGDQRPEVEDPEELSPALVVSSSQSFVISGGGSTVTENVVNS
The data set can be described thus: Antagonist activity at human CaSR expressed in CCL39 cells assessed as inhibition of extracellular calcium-induced intracellular calcium transient by FLIPR assay. In kind it is functional, cell-based. (In general: Calcium assays in cells follow changes in intracellular calcium, usually with a dye or a luminescent sensor.)

The next data set deals with Rattus norvegicus. The data set can be described thus: Induction of PTH release in iv dosed Wistar rat by radioimmunoassay. In kind it is functional, organism-based.
Data set [2] can be described thus: Aqueous solubility at pH 1.0. In kind it is physicochemical.
A short description of data set [3]: Oral bioavailability in rat. In kind it is ADME, organism-based. To be noted: in vivo.
A short description of data set [4]: Aqueous solubility at pH 6.8. Format: physicochemical.

≈ marks a conversion by molar mass, not a printed value. Calls of active or inactive are those of the source. The calls are words filed in the database; no cut-off is given here.

For the compound `C#CCN(CC#C)c1ccc2c(c1)c(-c1ccc(C(C)C)cc1)nc(=O)n2C(C)C`, in data set [1], the 50% inhibitory concentration (IC50) (in general, the point on the concentration scale where inhibition reaches its midpoint) stood at 120 nM. Moreover, the result with Rattus norvegicus was Active.
Regarding `C#CCOc1ccc2c(c1)c(-c1ccc(C(C)C)cc1)nc(=O)n2Cc1ccc(OC)c(OCC)c1` [ATF-936], in data set [1], the IC50 came to 1.4 nM. Further, the outcome in the data set on Rattus norvegicus was Active.
As to `C#CCOc1ccc2c(c1)c(-c1ccc(C(C)C)cc1)nc(=O)n2Cc1ccc(OC)cc1`, the IC50 in data set [1] was found to be 4.2 nM. Moreover, the outcome with Rattus norvegicus was Active.
The matching figures for `CCCN(CCC)c1ccc2c(c1)c(-c1ccc(C(C)C)cc1)nc(=O)n2C(C)C`: 2900 nM and “Active”.
As to `COc1ccc2c(c1)c(-c1ccc(-c3ccccc3)cc1)nc(=O)n2C(C)C`, the IC50 in data set [1] is 5500 nM. Moreover, the outcome in the data set with Rattus norvegicus was Active.
On to `CC#CCOc1ccc2c(c1)c(-c1ccc(C(C)C)cc1)nc(=O)n2C(C)C`, for which the IC50 in data set [1] amounted to 170 nM. Further, in the data set with Rattus norvegicus, the result was Active.
Consider `C#CCOc1ccc2c(c1)c(-c1ccc(C(C)C)cc1)nc(=O)n2Cc1ccc(C(C)C)cc1`, for which the IC50 in data set [1] turned out to be 27 nM. For the same compound, the outcome with Rattus norvegicus was Active.
For the compound `COC(=O)c1ccc(-c2nc(=O)n(C(C)C)c3ccc(OC)cc23)cc1`, the concentration for half-maximal inhibition (IC50) in data set [1] is over 30000 nM. Besides, the result in the data set on Rattus norvegicus was Active.
For the compound `C#CCOc1ccc2c(c1)c(-c1ccc(C(C)C)cc1)nc(=O)n2Cc1cccc(C)c1`, in data set [1], the IC50 worked out at 1.8 nM. In the data set on Rattus norvegicus, the result was Active.
`COc1ccc2c(c1)c(-c1ccccc1)nc(=O)n2C(C)C`: the IC50 in data set [1] is over 30000 nM. In the data set with Rattus norvegicus, the result was Active.
For `C#CCOc1ccc2c(c1)c(-c1ccc(C(C)C)cc1)nc(=O)n2Cc1ccc(OCC)cc1`, the IC50 in data set [1] was found to be 19 nM. For the same compound, in the data set on Rattus norvegicus, the result was Active.
`COc1ccc2c(c1)c(-c1ccc(OC(C)C)cc1)nc(=O)n2C(C)C`: the IC50 in data set [1] is over 30000 nM. Also, the outcome in the data set on Rattus norvegicus was Active.
Turning to `COc1ccc2c(c1)c(-c1ccc(C3CC3)cc1)nc(=O)n2C(C)C`, the IC50 in data set [1] was 3300 nM. Besides, the outcome in the data set on Rattus norvegicus was Active.
For `CCCCOc1ccc2c(c1)c(-c1ccc(C(C)C)cc1)nc(=O)n2C(C)C`, in that order: 3700 nM and “Active”.
Consider `CCN(CC)c1ccc2c(c1)c(-c1ccc(C(C)C)cc1)nc(=O)n2C(C)C`, for which the IC50 in data set [1] came out at 520 nM. For the same compound, the result with Rattus norvegicus was Active.
With `COc1ccc2c(c1)c(-c1ccc(C(C)(C)C)cc1)nc(=O)n2C(C)C`, in data set [1], the IC50 turned out to be 2100 nM. Further, in the data set on Rattus norvegicus, the outcome was Active.
The matching figures for `CC(C)Oc1ccc2c(c1)c(-c1ccc(C(C)C)cc1)nc(=O)n2C(C)C`: 2700 nM and “Active”.
With `C#CCOc1ccc2c(c1)c(-c1ccc(C(C)C)cc1)nc(=O)n2Cc1cccc(OCCO)c1`, the IC50 in data set [1] is 7.3 nM. The outcome in the data set on Rattus norvegicus was Active.
With `CCNc1ccc2c(c1)c(-c1ccc(C(C)C)cc1)nc(=O)n2C(C)C`, the IC50 in data set [1] was determined as 460 nM. Further, the result with Rattus norvegicus was Active.
For `C#CCOc1ccc2c(c1)c(-c1ccc(C(C)C)cc1)nc(=O)n2Cc1ccc(OCC(=O)O)cc1`, the IC50 in data set [1] is 12.6 nM. Moreover, the result in the data set with Rattus norvegicus was Active.
Turning to `C#CCOc1ccc2c(c1)c(-c1ccc(C(C)C)cc1)nc(=O)n2Cc1cccc(CC)c1`, the IC50 in data set [1] was 13 nM. Besides, the outcome in the data set on Rattus norvegicus was Active.
As for `C=CCOc1ccc2c(c1)c(-c1ccc(C(C)C)cc1)nc(=O)n2C(C)C`, the IC50 in data set [1] came to 180 nM. Moreover, the result in the data set with Rattus norvegicus was Active.
For the compound `CCCNc1ccc2c(c1)c(-c1ccc(C(C)C)cc1)nc(=O)n2C(C)C`, the IC50 in data set [1] was 1100 nM. Also, the outcome with Rattus norvegicus was Active.
For the compound `CC(C)c1ccc(-c2nc(=O)n(Cc3ccccc3)c3ccc(O)c(CC4CC4)c23)cc1`, in data set [1], the IC50 came out at 2.5 nM. Besides, the outcome with Rattus norvegicus was Active.
With `C#CCOc1ccc2c(c1)c(-c1ccc(C(C)C)cc1)nc(=O)n2Cc1cccc(NC(=O)CN2CCN(CCCN(C)C)CC2)c1`, in data set [1], the 50% inhibitory concentration (IC50) worked out at 8.1 nM. For the same compound, the solubility (usually the concentration that dissolves in the medium under given conditions) in data set [2] is over 200 µg/mL; in data set [4], 100 µg/mL (≈ 158 µM). The bioavailability (as a rule, the share of a dose that reaches the circulation, judged against a reference dose that is usually intravenous) in data set [3] was 8%. Moreover, in the data set with Rattus norvegicus, the result was Active.
Turning to `CCOc1ccc2c(c1)c(-c1ccc(C(C)C)cc1)nc(=O)n2C(C)C`, the concentration for half-maximal inhibition (IC50) in data set [1] was determined as 2200 nM. The outcome in the data set with Rattus norvegicus was Active.
For the compound `C#CCOc1ccc2c(c1)c(-c1ccc(C(C)C)cc1)nc(=O)n2Cc1cccc(OCC(=O)O)c1`, the IC50 in data set [1] came to 3.4 nM. In addition, the result with Rattus norvegicus was Active.
The matching figures for `CCCc1c(O)ccc2c1c(-c1ccc(C(C)C)cc1)nc(=O)n2Cc1ccccc1`: 6.6 nM and “Active”.
In the case of `C#CCOc1ccc2c(c1)c(-c1ccc(C(C)C)cc1)nc(=O)n2Cc1ccc(C)cc1`, the IC50 in data set [1] amounted to 1.6 nM. Further, the result in the data set with Rattus norvegicus was Active.
Consider `C=CCc1c(O)ccc2c1c(-c1ccc(C(C)C)cc1)nc(=O)n2Cc1ccccc1`, for which, in data set [1], the IC50 was 3.9 nM. Besides, in the data set with Rattus norvegicus, the result was Active.
`COc1ccc2c(c1)c(-c1ccc(C(=O)O)cc1)nc(=O)n2C(C)C`: the IC50 in data set [1] is over 30000 nM. In addition, the result with Rattus norvegicus was Active.
On to `CCCOc1ccc2c(c1)c(-c1ccc(C(C)C)cc1)nc(=O)n2C(C)C`, for which the IC50 in data set [1] was determined as 1100 nM. In addition, the result in the data set with Rattus norvegicus was Active.
On to `C#CCOc1ccc2c(c1)c(-c1ccc(C(C)C)cc1)nc(=S)n2Cc1cccc(OCCO)c1`, for which the 50% inhibitory concentration (IC50) in data set [1] came out at 0.4 nM. Further, in the data set on Rattus norvegicus, the result was Active.
As for `C#CCOc1ccc2c(c1)c(-c1ccc(C(C)C)cc1)nc(=O)n2Cc1cccc(OC)c1`, in data set [1], the concentration for half-maximal inhibition (IC50) was 2.7 nM. Moreover, the outcome with Rattus norvegicus was Active.
With `CC(C)c1ccc(-c2nc(=O)n(C(C)C)c3ccc(NCc4ccccc4)cc23)cc1`, the IC50 in data set [1] amounted to 10000 nM. Besides, the result in the data set on Rattus norvegicus was Active.
The matching figures for `CC(C)c1ccc(-c2nc(=O)n(C(C)C)c3ccc(O)cc23)cc1`: 15900 nM and “Active”.
The matching figures for `C#CCNc1ccc2c(c1)c(-c1ccc(C(C)C)cc1)nc(=O)n2C(C)C`: 30 nM and “Active”.
On to `COc1ccc2c(c1)c(-c1ccc(C(C)C)cc1)nc(=O)n2C(C)C`, for which the IC50 in data set [1] was 1400 nM. Also, the result with Rattus norvegicus was Active.
`C#CCOc1ccc2c(c1)c(-c1ccc(C(C)C)cc1)nc(=O)n2Cc1ccccc1`: in data set [1], the IC50 amounted to 4.4 nM. Also, the result in the data set with Rattus norvegicus was Active.
Consider `C#CCOc1ccc2c(c1)c(-c1ccc(C(C)C)cc1)nc(=O)n2Cc1cccc(NC(=O)CN2CCN(CCOC)CC2)c1`, for which, in data set [1], the IC50 came out at 13 nM. Moreover, the solubility in data set [2] is over 200 µg/mL; in data set [4] it was 20 µg/mL (≈ 32.9 µM). In data set [3], the bioavailability was determined as 1%. In addition, in the data set with Rattus norvegicus, the result was Active.
Consider `COc1ccc2c(c1)c(-c1ccc(C)cc1)nc(=O)n2C(C)C`, for which, in data set [1], the IC50 is over 30000 nM. Besides, the result with Rattus norvegicus was Active.
Consider `C=CCN(C)c1ccc2c(c1)c(-c1ccc(C(C)C)cc1)nc(=O)n2C(C)C`, for which the IC50 in data set [1] stood at 230 nM. The outcome in the data set on Rattus norvegicus was Active.
As for `C#CCOc1ccc2c(c1)c(-c1ccc(C(C)C)cc1)nc(=O)n2Cc1cccc(NC(=O)CN2CCN(C)CC2)c1`, the IC50 in data set [1] worked out at 2.4 nM. Moreover, the solubility is over 200 µg/mL in data set [2] and 20 µg/mL (≈ 35.5 µM) in data set [4]. Further, the bioavailability in data set [3] came to 1%. In the data set with Rattus norvegicus, the outcome was Active.
Consider `C#CCOc1ccc2c(c1)c(-c1ccc(C(C)C)cc1)nc(=O)n2Cc1ccc(CC)cc1`, for which the IC50 in data set [1] is 4.2 nM. Further, the result in the data set with Rattus norvegicus was Active.
Regarding `CCc1ccc(-c2nc(=O)n(C(C)C)c3ccc(OC)cc23)cc1`, the IC50 in data set [1] was 2100 nM. In addition, the outcome in the data set with Rattus norvegicus was Active.
The matching figures for `C=CCNc1ccc2c(c1)c(-c1ccc(C(C)C)cc1)nc(=O)n2C(C)C`: 70 nM and “Active”.
